Assay [1] can be described thus: Inhibition of HIV Vif induced human cytidine-deaminase degradation in double transgenic HEK293 cells constitutively expressing enhanced yellow fluorescent protein expressor (EYFP-A3G) fusion and Tet-Off controllable Vif protein after 24 hrs by fluorimetric assay. It is filed as cell-based, Human immunodeficiency virus.
Assay [2] in a line: Inhibition of HIV Vif by replicating virus inhibition assay. The arrangement: species or system Human immunodeficiency virus.

For `COc1ccccc1NC(=O)c1ccccc1Sc1ccc([N+](=O)[O-])cc1`, the figures for the EC50 in assay [1] and in assay [2] were 5.8 µM and 3 µM, respectively.

The values above are taken from ChEMBL document CHEMBL1212753, “Inducible APOBEC3G-Vif double stable cell line as a high-throughput screening platform to identify antiviral compounds” (Antimicrob Agents Chemother, 2010).
